Data on one molecule can be found in patent US9694073B2, “Small molecule inhibitors of polynucleotide kinase/phosphatase, poly(ADP-ribose) polymerase and uses thereof” (THE GOVERNORS OF THE UNIVERSITY OF ALBERTA, priority 2009, dated 2017).

“Also recorded” adds a separate entry of the source.

The target of data set [1] is T1, Schizosaccharomyces pombe PNKP (Schizosaccharomyces pombe, UniProt O13911).
T1 construct: made in house
T1 sequence (O13911 1-408): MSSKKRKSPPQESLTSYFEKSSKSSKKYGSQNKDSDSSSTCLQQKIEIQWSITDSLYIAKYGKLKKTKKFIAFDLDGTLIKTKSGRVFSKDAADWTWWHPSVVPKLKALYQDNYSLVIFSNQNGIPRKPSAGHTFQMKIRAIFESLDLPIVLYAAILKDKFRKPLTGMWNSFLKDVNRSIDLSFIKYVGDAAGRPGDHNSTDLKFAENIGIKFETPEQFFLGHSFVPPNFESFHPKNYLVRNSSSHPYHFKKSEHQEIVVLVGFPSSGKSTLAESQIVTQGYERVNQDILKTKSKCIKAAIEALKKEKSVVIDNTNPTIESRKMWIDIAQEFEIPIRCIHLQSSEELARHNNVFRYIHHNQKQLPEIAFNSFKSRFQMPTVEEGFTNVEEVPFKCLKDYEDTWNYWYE
The data set is described as follows: PiColorLock 3'-phosphatase assay, fission yeast PNKP. The format is biochemical. To be noted: read-out: inhibition of S. pombe PNKP. The source says: To determine the specificity of A12B4C3 for human PNKP phosphatase activity, a number of closely related phosphatases such as the PNKP enzymes isolated from bacteriophage T4, Schizosaccharomyces pombe and mouse, as well as aprataxin, were examined.

For the next data set, the target named is T2, PP-1cγ (Homo sapiens, UniProt P36873).
T2 construct: made in house; host or cells: E. coli
The data set is described as follows: PP-1cγ pNPP phosphatase assay. The format is biochemical. To be noted: concentration as high as 83.3 μM. The procedure:
PP-1cγ and calcineurin activity was analyzed, using a colorimetric p-nitrophenol phosphate (pNPP) assay as previously described (33). The reaction were carried out in a 96-well microplate with a final volume of 60 μl containing 40 μl of pNPP assay buffer (50 mM Tris, pH 7.4, 0.1 mM EDTA, 30 mM MgCl2, 0.5 mM MnCl2, 1 mg/ml BSA, 0.2% β-mercaptoethanol), 0.03 μg PP-1cγ (specific activity>30 units per mg) or a catalytically equivalent quantity of calcineurin and 10 μl of 0.5 mM DNA 3′-phosphatase inhibitor sample in DMSO or 10 μl of 50 μM A12B4C3 sample in DMSO, or control solvent. After a 10-minute incubation at 37° C., 10 μl of 30 mM pNPP was added to each well and incubated for an additional of 60 minutes and 45 minutes for PP-1cγ and calcineurin, respectively.

Data set [2] concerns the target T3, human PNKP kinase activity (Homo sapiens, UniProt Q96T60).
T3 construct: made in house; host or cells: bacteria (said only for the batch compared with aprataxin)
The data set is described as follows: DNA kinase assay. Type of data set: biochemical. The method, then:
Reaction mixtures (20 μl) containing kinase buffer (80 mM succinic acid (pH 5.5), 10 mM MgCl2, and 1 mM DTT), 100 μM 20-mer oligonucleotide substrate, 3.3 pmol of [γ-32P]ATP, A12B4C3 (0-50 μM) in 2 μl DMSO, and 1 μg of PNK were incubated at 37° C. for 20 minutes. The reaction was stopped by addition of an equal volume of DNA loading dye (90% formamide, 0.02% bromophenol blue, 0.02% xylene cyanol in 1×TBE). Samples were boiled for 5 minutes and the products separated on a 12% polyacrylamide/8 M urea gel. Gels were scanned with a Typhoon 9400 Variable Mode Imager (GE Healthcare), and quantified using Image Quant 5.2 Software (GE Healthcare).
The effect of A12B4C3 on the kinase activity of human PNKP was examined by quantifying the transfer of ^32P-labeled phosphate from radiolabeled ATP to an oligonucleotide. […] However, the inhibition of the kinase and phosphatase activities cannot be directly compared because the standard assay for kinase activity uses ten-fold more enzyme than the assay for phosphatase activity

Data set [3] has as its system A549 cells. The data set is described as follows: Cell proliferation (MTS) assay, compound alone. The format is cell-based, human. To be noted: 72 hours. The method, then:
(§1) To determine the effect of the inhibition of PNKP by small molecule inhibitors on cell proliferation we used the CellTiter 96™ AQueous Non-Radioactive Cell Proliferation Assay (Promega, Madison Wis.), better known as the MTS assay. Approximately 2.5×10^3 A549 cells were plated in triplicate in a 96-well plate with different concentration of A12B4C3. After 72 hours, 20 μl of CellTiter 96 Aqueous One Solution Reagent was added to each well and cells were incubated for 4 more hours at 37° C. The absorbance recorded at 490 nm was used as the number of living cells in culture (FLUOstar Optima, BMG Labtechnologies).
(§2) A12B4C3 was first tested for inherent toxicity. Cytotoxicity was measured by cell proliferation assay after exposure of A549 human lung adenocarcinoma cells and MDA-MB-231 cells to different doses of the compound for 72 hours (FIG. 6A). A dose-dependent reduction in cell proliferation up to 50% at 100 μM A12B4C3 was observed. […] While not wishing to be bound by theory, this may be indicative of a maximal level of drug uptake. No effect on cell proliferation was detected after exposure to 1 μM A12B4C3.

For a further data set, the system named is MDA-MB-231 cells. Description: Cell proliferation (MTS) assay, compound alone. The format is cell-based, human. To be noted: 72 hours. The procedure: as §1, §2
Data set [4] is described as follows: Clonogenic survival assay, compound alone. Type of data set: cell-based. To be noted: 1 μM, exposure up to 24 hours (data not shown). The procedure:
(§3) The effect of hPNKP inhibition by A12B4C3 on cellular survival following exposure to ionizing radiation was measured in A549, A549δPNKP and MDA-MB-231 and MDA-MB-231δPNKP cells by clonogenic assays. Cells were seeded on 60-mm tissue culture plates at various concentrations to give between about 100-1000 colonies per plate and returned to the incubator overnight to allow the cells to attach. For radiosensitization studies, the cells were incubated with or without 1 μM A12B4C3 for 2 hours before irradiation and then exposed to increasing doses of γ-radiation (^60Co Gammacell; Atomic Energy of Canada Limited, Ottawa). After irradiation, cells were incubated for a further 24 hours in the same media and then washed twice with phosphate-buffered saline (PBS) and incubated in fresh media without the inhibitor. Colonies were stained with crystal violet after 10 to 14 days and counted with an automated Colcount colony counter (Oxford Optronix, Oxford, UK).
A12B4C3 was first tested for inherent toxicity. Cytotoxicity was measured by cell proliferation assay after exposure of A549 human lung adenocarcinoma cells and MDA-MB-231 cells to different doses of the compound for 72 hours (FIG. 6A). A dose-dependent reduction in cell proliferation up to 50% at 100 μM A12B4C3 was observed. […] No effect on cell proliferation was detected after exposure to 1 μM A12B4C3.

In data set [5] the test system is A549 cells. Description: Radiosensitization, clonogenic assay. To be noted: 1 μM, 2 hours before irradiation and 24 hours after. Type of data set: cell-based, human. The procedure:
as §3
(§4) The capacity of A12B4C3 to act as a radiosensitizer was then examined. A549 cells were incubated with 1 μM A12B4C3 for 2 hours prior to irradiation and then maintained in the presence of the compound for a further 24 hours. […] This radiation response was nearly identical to that seen with cells depleted of PNKP by stable expression of shRNA (A549δPNKP).

Data set [6] deals with A549δPNKP cells (PNKP-depleted). The data set is described as follows: Radiosensitization, clonogenic assay. Type of data set: cell-based, human. To be noted: 1 μM. The procedure: as §3, §4
In data set [7] the test system is DNA Polymerase β Dominant Negative (Pol β DN) A549 cells. The data set is described as follows: Synthetic lethality cell proliferation assay. Type of data set: cell-based, human. To be noted: increasing concentrations, 72 hours.

T2 sequence (P36873 whole entry): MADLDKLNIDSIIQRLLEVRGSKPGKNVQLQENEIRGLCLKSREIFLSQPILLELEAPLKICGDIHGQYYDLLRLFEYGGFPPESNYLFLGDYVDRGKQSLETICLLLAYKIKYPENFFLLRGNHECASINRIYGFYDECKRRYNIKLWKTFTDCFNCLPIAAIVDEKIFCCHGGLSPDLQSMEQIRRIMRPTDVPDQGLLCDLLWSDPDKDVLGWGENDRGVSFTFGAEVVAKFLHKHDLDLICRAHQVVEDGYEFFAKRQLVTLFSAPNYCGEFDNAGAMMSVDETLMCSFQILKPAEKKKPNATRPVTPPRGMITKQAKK

As to `CCCCCCCCCCC(O)C1C=CC2C(=O)N(c3ccccc3)C(=O)C2N1Nc1ccc([N+](=O)[O-])cc1` (stereo not drawn) [Compound A12B4C3, 2-(1-hydroxyundecyl)-1-(4-nitrophenylamino)-6-phenyl-6,7a-dihydro-1H-pyrrolo[3,4-b]pyridine-5,7(2H,4aH)-dione], the inhibition (commonly the change of the read-out against control, counted positive when it falls) at 50 µM in data set [1] was around 20%. Further, at PP-1cγ, the “inhibition of PP-1γ” value is given as “Neither enzyme displayed inhibition; also recorded: no inhibition”. The molecule also had an inhibition at 1 µM in data set [2] (1 μM) of around 16%. Also, the “reduction of human PNKP kinase activity” value in data set [2] (50 μM) is reported as around 30%. For the same molecule, the “effect on cell proliferation” value in the data set with A549 cells [3] (1 μM) and in the data set with MDA-MB-231 cells (1 μM) was “No effect” throughout. In addition, the “reduction in cell proliferation” value in the data set with A549 cells [3] (100 μM) and in the data set on MDA-MB-231 cells (100 μM) was “up to 50%” throughout. In addition, the “cytotoxicity by clonogenic survival assay” value in data set [4] is “lack of cytotoxicity”. The “radiosensitization (γ-radiation survival curves)” value in the data set on A549 cells [5] is reported as “almost doubled the radiosensitivity”; in data set [6], “failed to sensitize”. Moreover, the “cell survival of Pol β DN cells” value in [7] is recorded as “reduced survival; also recorded: inverse relationship”.
